Results on 8 compounds are retold here after ChEMBL document CHEMBL1138983, “Design, synthesis, and evaluation of novel 6-chloro-/fluorochromone derivatives as potential topoisomerase inhibitor anticancer agents” (2006).

In assay [1] the test system is Mus musculus. In words: Median survival time in Ehrlich carcinoma bearing Swiss Albino mice 9 days post dose administered ip. The format is functional.
Assay [2] deals with Ehrlich. The assay can be described thus: Cytotoxicity against Ehrlich ascites carcinoma cells at 125 ug/ml. The format is functional, Mus musculus.
In assay [3] the test system is Ehrlich. In words: Cytotoxicity against Ehrlich ascites carcinoma cells at 500 ug/ml. The format is functional, Mus musculus.
For assay [4], the system named is Ehrlich. The assay can be described thus: Cytotoxicity against Ehrlich ascites carcinoma cells at 250 ug/ml. The format is functional, Mus musculus.
The test system of assay [5] is Mus musculus. The assay can be described thus: Effect on weight variation in Ehrlich carcinoma bearing Swiss Albino mice 9 days post dose administered ip. The format is functional.
The subject of assay [6] is Mus musculus. The assay can be described thus: Increase in life span in Ehrlich carcinoma bearing Swiss Albino mice 9 days post dose administered ip. The format is functional.
Assay [7] relates to Mus musculus. The assay can be described thus: Increase in life span in Ehrlich carcinoma bearing Swiss Albino mice 9 days post dose at 3.5 mg/kg, ip. The format is functional, organism-based. On the set-up: dose 3.5 mg/kg.
The test system of assay [8] is Mus musculus. In words: Median survival time in Ehrlich carcinoma bearing Swiss Albino mice 9 days post dose at 3.5 mg/kg, ip. The format is functional, organism-based. Details: dose 3.5 mg/kg.
In assay [9] the test system is Mus musculus. The assay can be described thus: Effect on weight variation in Ehrlich carcinoma bearing Swiss Albino mice 9 days post dose at 3.5 mg/kg, ip. The format is functional, organism-based. Details: dose 3.5 mg/kg.

Consider `O=Cc1c(N2CCOCC2)oc2ccc(Cl)cc2c1=O`, for which, in [1], the MST worked out at 12 days. The Activity is 60% in [2]; 100% in assay [3]; 100% in assay [4]; -16.81% in assay [5]; 23.1% in assay [6].

For the compound `CN1CCN(c2cc3oc(N4CCN(C)CC4)c(C=O)c(=O)c3cc2F)CC1`, the Activity in assay [2] came out at 0%; in [3], 20%; in assay [4], 0%.

For the compound `O=Cc1c(N2CCCC2)oc2ccc(Cl)cc2c1=O`, the Activity in assay [2] stood at 90%; in assay [3], 100%; in assay [4], 100%.

Compound `O=Cc1c(N2CCCCC2)oc2cc(N3CCCCC3)c(F)cc2c1=O` registered an MST in assay [1] of 11.6 days. The Activity in assay [2] is reported as 100%; in [3], 100%; in assay [4], 100%; in assay [5] it was -9.5%; in [6] it was 17.9%.

As for `O=Cc1c(N2CCOCC2)oc2cc(N3CCOCC3)c(F)cc2c1=O`, the MST in [1] stood at 11.14 days. The Activity is on record as 0% in [2]; 70% in assay [3]; 0% in assay [4]; -15.89% in assay [5]; 16.9% in [6].

Regarding CISPLATIN, the Activity in [7] was 75.4%; in assay [9] it was -17.3%. In assay [8], this compound showed an MST of 17.3 days.

In the case of `CN1CCN(c2oc3ccc(Cl)cc3c(=O)c2C=O)CC1`, the results for the Activity in assay [2], in assay [3] and in assay [4] were 50%, 60% and 60%, respectively.

With `O=Cc1c(N2CCCCC2)oc2ccc(Cl)cc2c1=O`, the Activity in [2], in [3] and in assay [4] was 100% in each case.
